Assay results as given in ChEMBL document CHEMBL4261644, “Novel Symmetrical Benzazolyl Derivatives Endowed with Potent Anti-Heparanase Activity” (J Med Chem, 2018).

biological target: T1, Heparanase (Homo sapiens, UniProt Q9Y251); experiment: Inhibition of recombinant HPSE (unknown origin) using fondaparinux as substrate incubated for 3 hrs in absence of light by WST1 assay
T1 sequence (Q9Y251 whole entry): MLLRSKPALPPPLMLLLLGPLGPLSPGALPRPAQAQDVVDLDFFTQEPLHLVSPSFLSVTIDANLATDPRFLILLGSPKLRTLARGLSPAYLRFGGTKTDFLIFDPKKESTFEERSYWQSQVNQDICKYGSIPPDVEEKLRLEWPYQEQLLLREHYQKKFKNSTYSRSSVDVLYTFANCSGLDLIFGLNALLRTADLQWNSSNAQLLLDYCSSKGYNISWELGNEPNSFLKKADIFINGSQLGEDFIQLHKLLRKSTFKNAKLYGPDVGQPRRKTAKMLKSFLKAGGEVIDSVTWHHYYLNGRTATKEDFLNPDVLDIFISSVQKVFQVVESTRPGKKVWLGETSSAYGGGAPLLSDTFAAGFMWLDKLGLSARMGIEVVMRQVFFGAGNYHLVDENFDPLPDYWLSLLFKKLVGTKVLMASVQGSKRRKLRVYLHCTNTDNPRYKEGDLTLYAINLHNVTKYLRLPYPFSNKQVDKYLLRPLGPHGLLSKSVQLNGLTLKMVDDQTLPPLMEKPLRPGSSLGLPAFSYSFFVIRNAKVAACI

Row | SMILES | IC50 [µM]
1 | Cc1cc2nc(-c3ccc(NC(=O)Nc4ccc(-c5nc6cc(C)c(C)cc6o5)cc4F)c(F)c3)oc2cc1C | > 10
2 | CC(C)CC(NC(=O)Cc1ccc2oc(-c3ccc(NC(=O)Nc4ccc(-c5nc6cc(CC(=O)NC(CC(C)C)B(O)O)ccc6o5)cc4F)c(F)c3)nc2c1)B(O)O (stereo not drawn) | 4.87
3 | O=C(O)CNC(=O)Cc1ccc2[nH]c(-c3ccc(NC(=O)Nc4ccc(-c5nc6cc(CC(=O)NCC(=O)O)ccc6[nH]5)cc4F)c(F)c3)nc2c1 | > 10
4 | Cc1cc2nc(N3CCC(NC(=O)NC4CCN(c5nc6cc(C)c(C)cc6o5)CC4)CC3)oc2cc1C | > 10
5 | O=C(O)Cc1ccc(O)c(NC(=O)c2ccc(CC(O)Cc3ccc(C(=O)Nc4cc(CC(=O)O)ccc4O)cc3)cc2)c1 | > 10

More lines, now with the values ahead:

Row | IC50 [µM] | SMILES
6 | 0.99 | O=C(O)Cc1ccc2[nH]c(-c3ccc(NC(=S)Nc4ccc(-c5nc6cc(CC(=O)O)ccc6[nH]5)cc4F)c(F)c3)nc2c1
7 | > 10 | Cc1cc2nc(-c3ccc(NC(=O)Nc4ccc(-c5nc6cc(C)c(C)cc6o5)cc4)cc3)oc2cc1C
8 | > 10 | O=C(Cc1ccc2oc(-c3ccc(NC(=O)Nc4ccc(-c5nc6cc(CC(=O)NCB(O)O)ccc6o5)cc4F)c(F)c3)nc2c1)NCB(O)O
